{"source": "patent US20140271756A1", "about": "“Controlled Release of Microbiocides” (priority 2013, published 2014)", "assay": "benzyltriazole release flux rate test of membrane in 20 gallons tap water", "assay_type": "physicochemical", "details": "80° F., 100 hour period", "procedure": "The microbiocide component release flux rate through the membrane is defined as milligrams of microbiocide component released per hour through one square millimeter of membrane or mg./hr./mm^2. Because the release flux rate varies over a wide range and is at least sometimes relatively slow, a test using benzyltriazole has been developed to quantify certain release flux rates that may be useful in accordance with the present invention. This test is conducted as follows.\nA tank with twenty (20) gallons of tap water is provided, together with a recirculating heater to give mixing and temperature control. […] Water samples are collected at regular intervals over a 100 hour period and are measured for benzyltriazole content. From these measurements, the benzyltriazole release flux rate of the membrane is determined. To illustrate, suppose 300 mg of benzyltriazole is released through 351 mm^2 of membrane area (exposed through an opening in the outermost wall of the container) in 100 hours. The benzyltriazole release flux rate", "data": [{"substance": "benzyltriazole", "values": [{"measurement": "benzyltriazole release flux rate", "setting": "membrane 27 of container 10, cellulose nitrate, average pore size about 20 to about 25 microns", "value": "about 0.049 mg/hr/min^2"}, {"measurement": "benzyltriazole release flux rate", "setting": "membrane layers 127 of container 110, cellulose nitrate, pore size about 8 microns", "value": "about 0.025 mg/hr./mm^2"}]}]}
